Columns and labels:
Assay in all cases: DiscoverX KINOMEscan kinase profiling (468 assays)
Type in all cases: binding
human kinome [1] = molecular target: human kinome (Homo sapiens, UniProt P00533, DEL752-759); settings: EGFR(S752-I759del); 100 nM; read-out: Percent Control
Experimental: (§1) Kinomescan Kinase Profiling Assay
(§2) Kinomescan Assay was performed at DiscoverRX and described in Fabian, et al. 2005, Nat.
(§3) Biotechnol. In brief, kinases were produced and subsequently tagged with DNA for qPCR detection.
(§4) Streptavidin-coated magnetic beads were bound to biotinylated kinase ligands to serve as a solid support.
(§5) VIP152 was dissolved in DMSO and tested across a 10 serial threefold dilution set and compared to a test
(§6) compound and a DMSO control.
(§7) Kinome map was produced via TreeSpot
(§8) Analysis from DiscoverRX. […]

human kinome [2] = molecular target: human kinome (Homo sapiens, UniProt P07948); settings: LYN; 100 nM; read-out: Percent Control
Experimental: as §1, §2, §3, §4, §5, §6, §7, §8

human kinome [3] = molecular target: human kinome (Homo sapiens, UniProt P07949); settings: kinase RET (Entrez RET); compound concentration 1000 nM; read-out: Percent Control
Experimental: as §1, §2, §3, §4, §5, §6, §7, §8

human kinome [4] = molecular target: human kinome (Homo sapiens, UniProt P36888, R834Q); settings: FLT3(R834Q); 100 nM; read-out: Percent Control
Experimental: as §1, §2, §3, §4, §5, §6, §7, §8

human kinome [5] = molecular target: human kinome (Homo sapiens, UniProt P41743); settings: read-out: Percent Control
Experimental: as §1, §2, §3, §4, §5, §6, §7, §8

human kinome [6] = molecular target: human kinome (Homo sapiens, UniProt P42338); settings: read-out: Percent Control
Experimental: as §1, §2, §3, §4, §5, §6, §7, §8

human kinome [7] = molecular target: human kinome (Homo sapiens, UniProt P49674); settings: CSNK1E; 100 nM; read-out: Percent Control
Experimental: as §1, §2, §3, §4, §5, §6, §7, §8

human kinome [8] = molecular target: human kinome (Homo sapiens, UniProt P51955); settings: read-out: Percent Control
Experimental: as §1, §2, §3, §4, §5, §6, §7, §8

human kinome [9] = molecular target: human kinome (Homo sapiens, UniProt P53778); settings: read-out: Percent Control
Experimental: as §1, §2, §3, §4, §5, §6, §7, §8

human kinome [10] = molecular target: human kinome (Homo sapiens, UniProt P54646); settings: AMPK-alpha2 (Entrez PRKAA2); 100 nM; read-out: Percent Control
Experimental: as §1, §2, §3, §4, §5, §6, §7, §8

human kinome [11] = molecular target: human kinome (Homo sapiens, UniProt Q00532); settings: CDKL1; 100 nM; read-out: Percent Control
Experimental: as §1, §2, §3, §4, §5, §6, §7, §8

human kinome [12] = molecular target: human kinome (Homo sapiens, UniProt Q06418); settings: kinase TYRO3 (Entrez TYRO3); compound concentration 1000 nM; read-out: Percent Control
Experimental: as §1, §2, §3, §4, §5, §6, §7, §8

human kinome [13] = molecular target: human kinome (Homo sapiens, UniProt Q08881); settings: ITK; 100 nM; read-out: Percent Control
Experimental: as §1, §2, §3, §4, §5, §6, §7, §8

human kinome [14] = molecular target: human kinome (Homo sapiens, UniProt Q09013); settings: DMPK; 100 nM; read-out: Percent Control
Experimental: as §1, §2, §3, §4, §5, §6, §7, §8

human kinome [15] = molecular target: human kinome (Homo sapiens, UniProt Q14004); settings: read-out: Percent Control
Experimental: as §1, §2, §3, §4, §5, §6, §7, §8

human kinome [16] = molecular target: human kinome (Homo sapiens, UniProt Q14012); settings: CAMK1; 100 nM; read-out: Percent Control
Experimental: as §1, §2, §3, §4, §5, §6, §7, §8

human kinome [17] = molecular target: human kinome (Homo sapiens, UniProt Q16512); settings: read-out: Percent Control
Experimental: as §1, §2, §3, §4, §5, §6, §7, §8

human kinome [18] = molecular target: human kinome (Homo sapiens, UniProt Q59H18); settings: kinase TNNI3K (Entrez TNNI3K); compound concentration 1000 nM; read-out: Percent Control
Experimental: as §1, §2, §3, §4, §5, §6, §7, §8

human kinome [19] = molecular target: human kinome (Homo sapiens, UniProt Q8NG66); settings: read-out: Percent Control
Experimental: as §1, §2, §3, §4, §5, §6, §7, §8

human kinome [20] = molecular target: human kinome (Homo sapiens, UniProt Q8TDC3); settings: BRSK1; 100 nM; read-out: Percent Control
Experimental: as §1, §2, §3, §4, §5, §6, §7, §8

human kinome [21] = molecular target: human kinome (Homo sapiens, UniProt Q8WTQ7); settings: GRK7; 100 nM; read-out: Percent Control
Experimental: as §1, §2, §3, §4, §5, §6, §7, §8

human kinome [22] = molecular target: human kinome (Homo sapiens, UniProt Q8WXR4); settings: read-out: Percent Control
Experimental: as §1, §2, §3, §4, §5, §6, §7, §8

human kinome [23] = molecular target: human kinome (Homo sapiens, UniProt Q96BR1); settings: kinase SGK3 (Entrez SGK3); compound concentration 1000 nM; read-out: Percent Control
Experimental: as §1, §2, §3, §4, §5, §6, §7, §8

human kinome [24] = molecular target: human kinome (Homo sapiens, UniProt Q96J92); settings: kinase WNK4 (Entrez WNK4); compound concentration 1000 nM; read-out: Percent Control
Experimental: as §1, §2, §3, §4, §5, §6, §7, §8

human kinome [25] = molecular target: human kinome (Homo sapiens, UniProt Q9BRS2); settings: kinase RIOK1 (Entrez RIOK1); compound concentration 1000 nM; read-out: Percent Control
Experimental: as §1, §2, §3, §4, §5, §6, §7, §8

human kinome [26] = molecular target: human kinome (Homo sapiens, UniProt Q9BZL6); settings: read-out: Percent Control
Experimental: as §1, §2, §3, §4, §5, §6, §7, §8

human kinome [27] = molecular target: human kinome (Homo sapiens, UniProt Q9H4B4); settings: read-out: Percent Control
Experimental: as §1, §2, §3, §4, §5, §6, §7, §8

human kinome [28] = molecular target: human kinome (Homo sapiens, UniProt Q9HCP0); settings: CSNK1G1; 100 nM; read-out: Percent Control
Experimental: as §1, §2, §3, §4, §5, §6, §7, §8

human kinome [29] = molecular target: human kinome (Homo sapiens, UniProt Q9NWZ3); settings: IRAK4; 100 nM; read-out: Percent Control
Experimental: as §1, §2, §3, §4, §5, §6, §7, §8

human kinome [30] = molecular target: human kinome (Homo sapiens, UniProt Q9P2K8, S808G); settings: GCN2(Kin.Dom.2,S808G) (Entrez EIF2AK4); 100 nM; read-out: Percent Control
Experimental: as §1, §2, §3, §4, §5, §6, §7, §8

Sequence of human kinome (Homo sapiens, UniProt P42338) (P42338 whole entry): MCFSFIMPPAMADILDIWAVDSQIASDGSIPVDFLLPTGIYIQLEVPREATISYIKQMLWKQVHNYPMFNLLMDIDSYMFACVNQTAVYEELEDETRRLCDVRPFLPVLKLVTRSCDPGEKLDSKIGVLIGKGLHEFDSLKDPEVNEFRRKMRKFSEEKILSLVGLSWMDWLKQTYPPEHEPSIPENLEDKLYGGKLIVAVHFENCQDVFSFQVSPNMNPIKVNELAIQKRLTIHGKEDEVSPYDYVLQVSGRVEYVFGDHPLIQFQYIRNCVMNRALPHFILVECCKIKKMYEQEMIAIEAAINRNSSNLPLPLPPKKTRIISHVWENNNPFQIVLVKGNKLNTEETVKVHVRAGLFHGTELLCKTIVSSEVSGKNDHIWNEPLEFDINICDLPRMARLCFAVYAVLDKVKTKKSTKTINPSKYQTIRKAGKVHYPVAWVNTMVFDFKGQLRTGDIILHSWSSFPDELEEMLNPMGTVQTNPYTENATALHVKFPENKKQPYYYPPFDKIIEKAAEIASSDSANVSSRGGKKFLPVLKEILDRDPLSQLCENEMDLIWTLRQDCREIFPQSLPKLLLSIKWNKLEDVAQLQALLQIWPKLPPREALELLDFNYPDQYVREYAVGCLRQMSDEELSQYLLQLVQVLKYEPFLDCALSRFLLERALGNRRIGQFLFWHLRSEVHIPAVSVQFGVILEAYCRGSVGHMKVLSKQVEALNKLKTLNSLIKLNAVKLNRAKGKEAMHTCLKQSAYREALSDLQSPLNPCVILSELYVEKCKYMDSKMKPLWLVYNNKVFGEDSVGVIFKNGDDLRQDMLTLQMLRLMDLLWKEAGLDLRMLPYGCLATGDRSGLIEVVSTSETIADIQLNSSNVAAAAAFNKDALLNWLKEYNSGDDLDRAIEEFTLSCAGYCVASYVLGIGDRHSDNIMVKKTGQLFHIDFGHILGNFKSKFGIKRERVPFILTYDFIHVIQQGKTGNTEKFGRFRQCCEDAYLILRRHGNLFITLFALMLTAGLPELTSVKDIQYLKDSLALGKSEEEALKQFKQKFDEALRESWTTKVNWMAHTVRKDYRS
Sequence of human kinome (Homo sapiens, UniProt Q8NG66) (Q8NG66 whole entry): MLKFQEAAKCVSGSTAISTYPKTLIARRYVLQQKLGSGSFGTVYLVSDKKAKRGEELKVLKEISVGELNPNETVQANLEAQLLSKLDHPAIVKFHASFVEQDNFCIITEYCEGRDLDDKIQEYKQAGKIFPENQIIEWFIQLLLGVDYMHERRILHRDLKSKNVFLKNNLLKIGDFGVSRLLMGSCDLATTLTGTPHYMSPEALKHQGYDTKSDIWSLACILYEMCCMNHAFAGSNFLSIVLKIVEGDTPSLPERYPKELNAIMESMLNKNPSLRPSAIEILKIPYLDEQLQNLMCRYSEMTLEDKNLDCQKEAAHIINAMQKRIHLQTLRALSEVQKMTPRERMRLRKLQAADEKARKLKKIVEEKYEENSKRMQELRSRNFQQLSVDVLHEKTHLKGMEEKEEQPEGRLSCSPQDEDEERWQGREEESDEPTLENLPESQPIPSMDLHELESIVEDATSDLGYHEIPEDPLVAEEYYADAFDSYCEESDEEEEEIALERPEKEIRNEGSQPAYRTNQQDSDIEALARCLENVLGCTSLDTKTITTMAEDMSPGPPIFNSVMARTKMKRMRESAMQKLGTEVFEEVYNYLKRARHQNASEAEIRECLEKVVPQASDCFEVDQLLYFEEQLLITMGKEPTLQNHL
Sequence of human kinome (Homo sapiens, UniProt P41743) (P41743 whole entry): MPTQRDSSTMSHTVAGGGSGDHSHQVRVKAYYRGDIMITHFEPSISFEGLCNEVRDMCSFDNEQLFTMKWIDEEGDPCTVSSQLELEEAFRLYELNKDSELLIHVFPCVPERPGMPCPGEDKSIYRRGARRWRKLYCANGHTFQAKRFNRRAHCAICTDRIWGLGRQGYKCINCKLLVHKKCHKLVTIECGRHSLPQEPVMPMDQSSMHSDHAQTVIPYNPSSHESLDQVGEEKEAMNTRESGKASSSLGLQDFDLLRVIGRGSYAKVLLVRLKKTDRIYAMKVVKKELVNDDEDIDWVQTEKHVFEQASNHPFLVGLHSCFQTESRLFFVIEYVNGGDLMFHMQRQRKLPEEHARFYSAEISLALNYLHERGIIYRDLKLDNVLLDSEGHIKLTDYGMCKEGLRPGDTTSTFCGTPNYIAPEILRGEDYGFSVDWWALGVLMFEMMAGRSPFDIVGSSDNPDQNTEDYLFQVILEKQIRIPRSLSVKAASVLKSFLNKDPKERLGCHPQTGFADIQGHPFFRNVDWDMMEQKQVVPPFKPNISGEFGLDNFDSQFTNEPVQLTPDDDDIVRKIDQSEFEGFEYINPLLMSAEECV
Sequence of human kinome (Homo sapiens, UniProt P51955) (P51955 whole entry): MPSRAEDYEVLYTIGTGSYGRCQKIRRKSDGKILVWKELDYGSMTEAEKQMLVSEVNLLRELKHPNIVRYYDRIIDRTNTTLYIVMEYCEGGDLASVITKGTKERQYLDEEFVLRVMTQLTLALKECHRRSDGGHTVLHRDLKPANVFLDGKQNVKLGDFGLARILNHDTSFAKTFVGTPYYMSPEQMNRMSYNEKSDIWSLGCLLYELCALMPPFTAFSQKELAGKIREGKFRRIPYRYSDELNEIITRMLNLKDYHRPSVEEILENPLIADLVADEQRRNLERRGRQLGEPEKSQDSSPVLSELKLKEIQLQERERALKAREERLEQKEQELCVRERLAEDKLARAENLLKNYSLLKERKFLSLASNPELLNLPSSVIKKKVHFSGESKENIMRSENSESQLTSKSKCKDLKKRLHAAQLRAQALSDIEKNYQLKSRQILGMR
Sequence of human kinome (Homo sapiens, UniProt Q16512) (Q16512 whole entry): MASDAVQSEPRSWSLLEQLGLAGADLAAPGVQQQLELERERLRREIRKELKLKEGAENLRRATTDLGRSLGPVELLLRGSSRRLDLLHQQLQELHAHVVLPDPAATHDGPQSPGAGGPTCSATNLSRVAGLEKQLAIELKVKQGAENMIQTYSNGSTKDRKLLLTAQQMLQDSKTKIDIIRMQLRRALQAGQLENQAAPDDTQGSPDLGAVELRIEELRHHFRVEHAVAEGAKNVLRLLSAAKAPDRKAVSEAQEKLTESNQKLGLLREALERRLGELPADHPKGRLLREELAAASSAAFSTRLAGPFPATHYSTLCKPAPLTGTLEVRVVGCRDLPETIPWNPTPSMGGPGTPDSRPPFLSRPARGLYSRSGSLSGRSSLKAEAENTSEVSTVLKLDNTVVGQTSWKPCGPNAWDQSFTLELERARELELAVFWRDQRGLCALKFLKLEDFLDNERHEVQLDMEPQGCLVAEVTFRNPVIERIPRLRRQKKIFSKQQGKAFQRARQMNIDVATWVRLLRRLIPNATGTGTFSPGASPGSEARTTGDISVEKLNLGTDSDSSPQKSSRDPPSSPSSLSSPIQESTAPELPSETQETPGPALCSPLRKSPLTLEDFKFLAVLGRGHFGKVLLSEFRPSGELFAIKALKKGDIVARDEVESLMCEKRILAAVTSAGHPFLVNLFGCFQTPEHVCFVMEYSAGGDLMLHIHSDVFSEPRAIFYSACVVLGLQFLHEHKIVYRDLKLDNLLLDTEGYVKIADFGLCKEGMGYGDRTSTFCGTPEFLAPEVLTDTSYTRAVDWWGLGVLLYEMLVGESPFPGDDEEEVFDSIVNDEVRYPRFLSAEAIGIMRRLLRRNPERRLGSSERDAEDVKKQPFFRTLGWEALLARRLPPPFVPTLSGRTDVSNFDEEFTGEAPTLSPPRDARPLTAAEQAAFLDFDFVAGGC
Sequence of human kinome (Homo sapiens, UniProt P53778) (P53778 whole entry): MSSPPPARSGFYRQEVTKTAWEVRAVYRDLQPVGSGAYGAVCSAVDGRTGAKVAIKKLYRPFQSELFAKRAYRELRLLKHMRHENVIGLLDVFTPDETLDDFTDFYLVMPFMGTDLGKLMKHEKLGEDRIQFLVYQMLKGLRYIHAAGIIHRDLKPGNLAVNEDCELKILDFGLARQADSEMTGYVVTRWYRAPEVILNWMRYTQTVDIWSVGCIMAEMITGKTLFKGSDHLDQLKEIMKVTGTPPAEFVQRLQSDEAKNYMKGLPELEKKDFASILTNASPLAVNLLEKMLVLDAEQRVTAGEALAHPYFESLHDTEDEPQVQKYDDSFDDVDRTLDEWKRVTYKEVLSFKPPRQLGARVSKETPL
Sequence of human kinome (Homo sapiens, UniProt Q9H4B4) (Q9H4B4 whole entry): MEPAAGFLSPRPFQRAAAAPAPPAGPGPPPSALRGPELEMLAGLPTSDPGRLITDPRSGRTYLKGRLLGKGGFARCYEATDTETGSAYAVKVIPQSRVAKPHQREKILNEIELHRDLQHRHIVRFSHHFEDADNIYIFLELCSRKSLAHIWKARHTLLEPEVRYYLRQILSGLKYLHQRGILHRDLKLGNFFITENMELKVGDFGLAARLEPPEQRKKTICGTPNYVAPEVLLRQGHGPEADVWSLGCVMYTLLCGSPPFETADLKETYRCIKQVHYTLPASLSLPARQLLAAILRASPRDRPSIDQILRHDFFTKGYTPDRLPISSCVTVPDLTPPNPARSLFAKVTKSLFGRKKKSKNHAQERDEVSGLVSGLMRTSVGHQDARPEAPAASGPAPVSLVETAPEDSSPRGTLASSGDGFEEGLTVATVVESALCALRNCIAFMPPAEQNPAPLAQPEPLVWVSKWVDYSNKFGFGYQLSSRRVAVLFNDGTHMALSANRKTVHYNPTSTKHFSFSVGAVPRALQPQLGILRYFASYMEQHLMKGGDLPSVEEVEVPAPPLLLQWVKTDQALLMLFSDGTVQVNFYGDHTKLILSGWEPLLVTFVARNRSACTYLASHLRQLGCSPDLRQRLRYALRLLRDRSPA

Molecule `COc1cc(F)ccc1-c1cc(Nc2cc(CS(C)(=N)=O)ccn2)ncc1F` (stereo not drawn) [VIP152] has a remaining binding at 0.1 µM (human kinome [1]) of 100%, a remaining binding at 0.1 µM (human kinome [2]) of 100% and a remaining binding at 1 µM (human kinome [3]) of 94%. For the same molecule, the remaining binding at 0.1 µM (human kinome [4]) was 100%, the remaining binding at 0.1 µM (human kinome [5]; PRKCI, 100 nM) was 90% and the remaining binding at 1 µM (human kinome [5]; kinase PRKCI (Entrez PRKCI), compound concentration 1000 nM) was 96%. The remaining binding at 0.1 µM (human kinome [6]; PIK3CB, 100 nM) was 100%, the remaining binding at 1 µM (human kinome [6]; kinase PIK3CB (Entrez PIK3CB), compound concentration 1000 nM) was 100% and the remaining binding at 0.1 µM (human kinome [7]) was 95%. For the same molecule, the remaining binding at 0.1 µM (human kinome [8]; NEK2, 100 nM) was 100%, the remaining binding at 1 µM (human kinome [8]; kinase NEK2 (Entrez NEK2), compound concentration 1000 nM) was 84% and the remaining binding at 1 µM (human kinome [9]; kinase p38-gamma (Entrez MAPK12), compound concentration 1000 nM) was 100%. The remaining binding at 0.1 µM (human kinome [9]; p38-gamma (Entrez MAPK12), 100 nM) was 76%, the remaining binding at 0.1 µM (human kinome [10]) was 100% and the remaining binding at 0.1 µM (human kinome [11]) was 69%. The remaining binding at 1 µM (human kinome [12]) was 56%, the remaining binding at 0.1 µM (human kinome [13]) was 100% and the remaining binding at 0.1 µM (human kinome [14]) was 96%. The remaining binding at 0.1 µM (human kinome [15]) was 66%, the remaining binding at 0.1 µM (human kinome [16]) was 100% and the remaining binding at 0.1 µM (human kinome [17]; PKN1, 100 nM) was 100%. It also gave a remaining binding at 1 µM (human kinome [17]; kinase PKN1 (Entrez PKN1), compound concentration 1000 nM) of 88%, a remaining binding at 1 µM (human kinome [18]) of 27% and a remaining binding at 0.1 µM (human kinome [19]; NEK11, 100 nM) of 100%. It also gave a remaining binding at 1 µM (human kinome [19]; kinase NEK11 (Entrez NEK11), compound concentration 1000 nM) of 74%, a remaining binding at 0.1 µM (human kinome [20]) of 100% and a remaining binding at 0.1 µM (human kinome [21]) of 100%. The remaining binding at 0.1 µM (human kinome [22]; MYO3B, 100 nM) was 100%, the remaining binding at 1 µM (human kinome [22]; kinase MYO3B (Entrez MYO3B), compound concentration 1000 nM) was 68% and the remaining binding at 1 µM (human kinome [23]) was 60%. The remaining binding at 1 µM (human kinome [24]) was 80%, the remaining binding at 1 µM (human kinome [25]) was 79% and the remaining binding at 0.1 µM (human kinome [26]; PRKD2, 100 nM) was 90%. For the same molecule, the remaining binding at 1 µM (human kinome [26]; kinase PRKD2 (Entrez PRKD2), compound concentration 1000 nM) was 88%, the remaining binding at 0.1 µM (human kinome [27]; PLK3, 100 nM) was 91% and the remaining binding at 1 µM (human kinome [27]; kinase PLK3 (Entrez PLK3), compound concentration 1000 nM) was 92%. It also gave a remaining binding at 0.1 µM (human kinome [28]) of 100%, a remaining binding at 0.1 µM (human kinome [29]) of 100% and a remaining binding at 0.1 µM (human kinome [30]) of 96%.

From paper PMC9898036, “VIP152 is a selective CDK9 inhibitor with pre-clinical in vitro and in vivo efficacy in chronic lymphocytic leukemia” (Leukemia, 2022)
